Experimental data as given in US9961896B2, “Cleaning liquid” (priority 2013, dated 2018).

Key:
Assay in all cases: EN 1276 bactericidal activity
Format in all cases: cell-based
Conditions in all cases: diluted to 1:20 v/v; 5 minutes at 20° C.; dirty conditions
[1] = tested on: Pseudomonas aeruginosa (NCI MB 10421)
[2] = tested on: Escherichia coli (NCTC 10418)
[3] = tested on: Staphylococcus aureus (NCTC 10788)
[4] = tested on: Enterococcus hirae (NCIMB 8192)

Measured: passes the requirements of EN 1276 for bactericidal activity

Benzalkonium chloride [Acticide BAC50M]
does not pass: all assays above

CCCCCCCCCC[N+](C)(C)CCCCCCCCCC.[Cl-] [Acticide DDQ50, Didecyl Dimethyl Ammonium Chloride]
does not pass: all assays above

O=[N+]([O-])C(Br)(CO)CO [Acticide L, Bronopol]
does not pass: all assays above

Cc1cc(O)ccc1Cl [Acticide PCMC, P-chloro-m-cresol]
does not pass: all assays above
